Patent publication US8299048B2, “Hexahydrocyclopentyl[f]indazole sulfonamides and derivatives thereof as selective glucocorticoid receptor modulators” (Merck Sharp & Dohme Corp., priority 2008, dated 2012)

Target: T1, glucocorticoid receptor (Homo sapiens, UniProt P04150)
T1 construct: endogenous in cells
T1 sequence (P04150 1-777): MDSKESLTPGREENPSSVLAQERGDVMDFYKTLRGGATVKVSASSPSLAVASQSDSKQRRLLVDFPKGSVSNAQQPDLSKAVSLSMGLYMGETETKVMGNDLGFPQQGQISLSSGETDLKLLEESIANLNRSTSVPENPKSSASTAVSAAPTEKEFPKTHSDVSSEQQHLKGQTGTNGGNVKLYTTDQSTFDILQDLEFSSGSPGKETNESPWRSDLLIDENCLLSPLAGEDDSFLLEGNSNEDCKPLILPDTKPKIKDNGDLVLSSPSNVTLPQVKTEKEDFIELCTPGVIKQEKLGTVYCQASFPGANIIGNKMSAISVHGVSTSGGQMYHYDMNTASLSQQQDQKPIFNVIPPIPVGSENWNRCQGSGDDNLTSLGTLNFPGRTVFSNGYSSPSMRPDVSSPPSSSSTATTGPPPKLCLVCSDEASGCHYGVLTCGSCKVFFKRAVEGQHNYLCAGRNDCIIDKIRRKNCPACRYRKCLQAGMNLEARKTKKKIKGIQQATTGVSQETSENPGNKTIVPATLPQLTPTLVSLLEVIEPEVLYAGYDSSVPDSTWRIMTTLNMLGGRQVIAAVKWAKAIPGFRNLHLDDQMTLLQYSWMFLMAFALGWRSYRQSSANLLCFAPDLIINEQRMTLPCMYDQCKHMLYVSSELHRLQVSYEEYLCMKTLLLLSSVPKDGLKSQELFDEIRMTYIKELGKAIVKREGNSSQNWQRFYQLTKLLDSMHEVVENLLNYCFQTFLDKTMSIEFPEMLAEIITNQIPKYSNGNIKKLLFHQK
Test: Ligand binding assay (GR BIND)
Summary of the method: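 Displacement of tritiated dexamethasone (6 nM trace solution) from receptor in cell supernatant was measured after overnight incubation at 4 °C in molybdate-containing TEGM, pH 7.2, 2% ethanol. Hydroxylapatite pulled down the receptor–ligand complex for filter washing and scintillation counting, with dexamethasone as reference.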

Row | SMILES | Ki [nM]
1 | C[C@]12Cc3cnn(-c4ccc(F)cc4)c3C=C1CC[C@@H]2CN(CC#N)S(=O)(=O)c1cccc(C#N)c1 [Example 36, 3-cyano-N-(cyanomethyl)-N-{[(4αR,5S)-1-(4-fluorophenyl)-4α-methyl-1,4,4α,5,6,7-hexahydrocyclopenta[f]indazol-5-yl]methyl}benzenesulfonamide] | 2.5
2 | C[C@]12Cc3cnn(-c4ccc(F)cc4)c3C=C1CC[C@@H]2CN(CC#N)S(=O)(=O)c1ccc(C#N)cc1 [Example 28, 4-cyano-N-(cyanomethyl)-N-{[(4αR,5S)-1-(4-fluorophenyl)-4α-methyl-1,4,4α,5,6,7-hexahydrocyclopenta[f]indazol-5-yl]methyl}benzenesulfonamide] | 2.3
3 | C[C@]12Cc3cnn(-c4ccc(F)cc4)c3C=C1CC[C@@H]2CN(CCC#N)S(=O)(=O)c1ccccc1F [Example 16, N-(2-cyanoethyl)-2-fluoro-N-{[(4αR,5S)-1-(4-fluorophenyl)-4α-methyl-1,4,4α,5,6,7-hexahydrocyclopenta[f]indazol-5-yl]methyl}benzenesulfonamide] | 3
4 | C[C@]12Cc3cnn(-c4ccc(F)cc4)c3C=C1CC[C@@H]2CN(CC#N)S(=O)(=O)c1ccc(F)cc1F [Example 51, N-(cyanomethyl)-2,4-difluoro-N-{[(4αR,5S)-1-(4-fluorophenyl)-4α-methyl-1,4,4α,5,6,7-hexahydrocyclopenta[f]indazol-5-yl]methyl}benzenesulfonamide] | 2.5
5 | C[C@]12Cc3cnn(-c4ccc(F)cc4)c3C=C1CC[C@@H]2CN(CC#N)S(=O)(=O)c1ccccc1-c1ccccc1 [Example 53, N-(cyanomethyl)-N-{[(4αR,5S)-1-(4-fluorophenyl)-4α-methyl-1,4,4α,5,6,7-hexahydrocyclopenta[f]indazol-5-yl]methyl}biphenyl-2-sulfonamide] | 3.7
6 | C[C@]12Cc3cnn(-c4ccc(F)cc4)c3C=C1CC[C@@H]2CN(CC#N)S(=O)(=O)c1ccc(Oc2cccc(Cl)c2C#N)cc1 [Example 38, 4-(3-chloro-2-cyanophenoxy)-N-(cyanomethyl)-N-{[(4αR,5S)-1-(4-fluorophenyl)-4α-methyl-1,4,4α,5,6,7-hexahydrocyclopenta[f]indazol-5-yl]methyl}benzenesulfonamide] | 6.4
7 | Cc1noc(C)c1S(=O)(=O)N(C)C[C@H]1CCC2=Cc3c(cnn3-c3ccc(F)cc3)C[C@@]21C [Example 176, N-{[(4αR,5S)-1-(4-fluorophenyl)-4α-methyl-1,4,4α,5,6,7-hexahydrocyclopenta[f]indazol-5-yl]methyl}-N,3,5-trimethylisoxazole-4-sulfonamide] | 1.3
8 | Cc1noc(C)c1S(=O)(=O)N(CCCc1ccccc1)C[C@H]1CCC2=Cc3c(cnn3-c3ccc(F)cc3)C[C@@]21C [Example 194, N-{[(4αR,5S)-1-(4-fluorophenyl)-4α-methyl-1,4,4α,5,6,7-hexahydrocyclopenta[f]indazol-5-yl]methyl}-3,5-dimethyl-N-(3-phenylpropyl)isoxazole-4-sulfonamide] | 1.5

These reach a lower Ki. Values come first.

Row | Ki [nM] | SMILES
9 | 0.6 | C[C@]12Cc3cnn(-c4ccc(F)cc4)c3C=C1CC[C@@H]2CN(CCCc1ccccc1)S(=O)(=O)c1ccccc1F [Example 195, 2-fluoro-N-{[(4αR,5S)-1-(4-fluorophenyl)-4α-methyl-1,4,4α,5,6,7-hexahydrocyclopenta[f]indazol-5-yl]methyl}-N-(3-phenylpropyl)benzenesulfonamide]
10 | 1.2 | CCN(C[C@H]1CCC2=Cc3c(cnn3-c3ccc(F)cc3)C[C@@]21C)S(=O)(=O)c1c(C)noc1C [Example 178, N-ethyl-N-{[(4αR,5S)-1-(4-fluorophenyl)-4α-methyl-1,4,4α,5,6,7-hexahydrocyclopenta[f]indazol-5-yl]methyl}-3,5-dimethylisoxazole-4-sulfonamide]
11 | 0.9 | C[C@]12Cc3cnn(-c4ccc(F)cc4)c3C=C1CC[C@@H]2CN(CC#N)S(=O)(=O)Cc1ccccc1 [Example 48, N-(cyanomethyl)-N-{[(4αR,5S)-1-(4-fluorophenyl)-4α-methyl-1,4,4α,5,6,7-hexahydrocyclopenta[f]indazol-5-yl]methyl}-1-phenylmethanesulfonamide]
